# Data reported in paper PMC4810081, “Venetoclax (ABT-199) Might Act as a Perpetrator in Pharmacokinetic Drug–Drug Interactions” (Pharmaceutics, 2016).
# Experiments:
# CYP1A1 = assay: Induction assay, CYP1A1 mRNA by real-time RT-PCR in LS180 cells; assay type: in vitro ADME, human; details: four days, 10 µM
# Description: (§1) LS180 cells. The human colon adenocarcinoma cell line LS180 (available at ATCC, Manassas, VA, USA) is one of the standard models for investigating pregnane X receptor (PXR) and aryl hydrocarbon receptor (AhR) mediated induction and was thus used for induction experiments. Cells were cultured under standard cell culture conditions with DMEM supplemented with 10% FCS, 2 mM of glutamine, 100 U/mL of penicillin, 100 µg/mL of streptomycin sulfate, and 0.1 mM of nonessential amino acids.
# (§2) For the induction experiments, LS180 cells were seeded in 75 cm^2 culturing flasks and incubated for three days. […]
# (§3) RNA was isolated using the GenElute™ Mammalian Total RNA Miniprep Kit, and cDNA was synthesized with the RevertAid™ H Minus First Strand cDNA Synthesis Kit according to the manufacturer's instructions. mRNA expression was quantified by real-time RT-PCR with the LightCycler® 480 (Roche Applied Science, Mannheim, Germany) as described previously. […] Data were evaluated via calibrator-normalized relative quantification with efficiency correction using the LightCycler® 480 software version 1.5 (Roche Applied Science, Mannheim, Germany). […] The following target genes were quantified: CYP1A1, CYP1A2, CYP3A4, ABCB1, ABCC2, ABCG2, SLCO1B1 (coding for OATP1B1), UDP-glucuronosyltransferase 1A3 (UGT1A3), and UGT1A9.
# ABCG2 = assay: Induction assay, ABCG2 mRNA by real-time RT-PCR in LS180 cells; assay type: in vitro ADME, human; details: four days, 0.01–10 µM
# Description: as §1, §2, §3
# SLCO1B1 = assay: Induction assay, SLCO1B1 mRNA by real-time RT-PCR in LS180 cells; assay type: in vitro ADME, human; details: four days, at 5 µM
# Description: as §1, §2, §3
# CYP2D6 = target: T1, CYP2D6 (Homo sapiens, UniProt P10635); assay: CYP2D6 inhibition, CYP2D6/AMMC High Throughput Inhibitor Screening Kit; assay type: in vitro ADME; details: recombinant CYP, fluorogenic substrate, 0.009–20 µM tested
# T1 construct: purchased Becton Dickinson Biosciences (Heidelberg, Germany)
# Description: (§4) Inhibition studies for CYP2B6, CYP2D6, CYP2C19 and CYP3A4 were performed with the CYP2B6/EFC, CYP2D6/AMMC, the CYP2C19/CEC, and the CYP3A4/BFC High Throughput Inhibitor Screening Kit according to the manufacturer’s instructions. The kits contain the respective recombinant CYP and fluorogenic substrates, which are blocked dyes emitting a fluorescence signal when cleaved by the enzyme. For testing CYP1A2 inhibition, the P450-Glo CYP1A2 Screening System was used according to the manufacturer’s instructions. The kit contains the luminogenic CYP1A2 substrate luciferin-ME, which is converted by CYP1A2 into luciferin-generating light when incubated with the luciferin detection reagent of the kit. Eight concentrations of venetoclax in duplicates (0.009–20 µM) were tested in the fluorescence assays, and eight concentrations in triplicate (0.05–100 µM) were tested for the luminogenic assay. Each experiment was conducted in triplicate.
# [1] = Growth inhibition assay in MDCKII-MRP2 cells; assay type: cell-based; details: dog, MDCKII-MRP2 cells (MRP2 over-expressing)
# Description: MDCKII cells. […] Moreover, MDCKII-BCRP cells were used to assess BCRP inhibition by venetoclax. MDCKII over-expressing cell lines were kindly provided by A. H. Schinkel and P. Borst (Amsterdam, The Netherlands). The parental cell line MDCKII (available at ATCC, Manassas, VA, USA) was used as a control. The cells were cultured in Dulbecco’s Modified Eagle’s Medium (DMEM) containing 10% FCS, 2 mM of glutamine, 100 U/mL of penicillin, and 100 µg/mL of streptomycin sulfate. Growth inhibition assays in LS180 cells were conducted to determine suitable maximum concentrations for the induction assay without profound antiproliferative effects. Proliferation was quantified by crystal violet staining of the surviving cells as described previously. […] Growth inhibition assays in MDCKII, and their MRP2 or BCRP over-expressing counterparts ([…], MDCKII-BCRP) and in LLC-PK1 and the corresponding P-gp over-expressing cell line L-MDR1 were conducted to evaluate whether venetoclax sustains its efficacy in MDR cell lines.
# CYP2C19 = target: T2, CYP2C19 (Homo sapiens, UniProt P33261); assay: CYP2C19 inhibition, CYP2C19/CEC High Throughput Inhibitor Screening Kit; assay type: in vitro ADME; details: recombinant CYP, fluorogenic substrate
# T2 construct: purchased Becton Dickinson Biosciences (Heidelberg, Germany)
# Description: as §4
# OATP1B1 = target: T3, OATP1B1 (Homo sapiens, UniProt Q9Y6L6); assay: OATP1B1 inhibition, 8-FcA uptake in HEK-OATP1B1 cells; assay type: in vitro ADME
# T3 construct: expressed in transfected cells; host or cells: HEK293 (HEK-OATP1B1; gift of D. Keppler)
# Description: HEK293 cells. For assessing inhibition of OATP1B1 and OATP1B3, the human embryonic kidney cell line HEK293 stably transfected with OATP1B1 (HEK-OATP1B1), OATP1B3 (HEK-OATP1B3), or the empty control vector (HEK293-VCG418) were used. Cells were cultured under standard cell culture conditions with DMEM supplemented with 10% FCS, 2 mM of glutamine, 100 U/mL of penicillin, 100 µg/mL of streptomycin sulfate, and 800 µg/mL of G418 to maintain over-expression. Cells were kindly provided by D. Keppler (German Cancer Research Centre, Heidelberg, Germany).
# Inhibition of OATP1B1 and OATP1B3 was analyzed in HEK-OATP1B1 and HEK-OATP1B3 cells by quantifying the uptake of the fluorescent substrate 8-FcA by flow cytometry as described previously. HEK293-VCG418 cells were used as a control. Inhibition of OATPs leads to a reduced uptake of 8-FcA into the cells. Each experiment was performed at least in triplicate, and venetoclax was tested from 0.05 up to 100 µM.
# T2 sequence (P33261 whole entry): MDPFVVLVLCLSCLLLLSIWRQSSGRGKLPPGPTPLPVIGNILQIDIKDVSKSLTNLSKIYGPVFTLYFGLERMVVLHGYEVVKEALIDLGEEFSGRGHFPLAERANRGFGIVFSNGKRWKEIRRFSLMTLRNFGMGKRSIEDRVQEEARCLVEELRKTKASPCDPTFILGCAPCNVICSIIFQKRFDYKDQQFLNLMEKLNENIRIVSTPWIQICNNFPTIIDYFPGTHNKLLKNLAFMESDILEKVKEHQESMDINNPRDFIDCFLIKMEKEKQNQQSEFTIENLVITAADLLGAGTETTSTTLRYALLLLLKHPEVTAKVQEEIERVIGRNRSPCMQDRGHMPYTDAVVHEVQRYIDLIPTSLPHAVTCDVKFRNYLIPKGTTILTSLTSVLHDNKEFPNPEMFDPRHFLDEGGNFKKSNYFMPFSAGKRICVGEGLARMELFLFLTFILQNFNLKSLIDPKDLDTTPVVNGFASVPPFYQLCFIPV
# T3 sequence (Q9Y6L6 whole entry): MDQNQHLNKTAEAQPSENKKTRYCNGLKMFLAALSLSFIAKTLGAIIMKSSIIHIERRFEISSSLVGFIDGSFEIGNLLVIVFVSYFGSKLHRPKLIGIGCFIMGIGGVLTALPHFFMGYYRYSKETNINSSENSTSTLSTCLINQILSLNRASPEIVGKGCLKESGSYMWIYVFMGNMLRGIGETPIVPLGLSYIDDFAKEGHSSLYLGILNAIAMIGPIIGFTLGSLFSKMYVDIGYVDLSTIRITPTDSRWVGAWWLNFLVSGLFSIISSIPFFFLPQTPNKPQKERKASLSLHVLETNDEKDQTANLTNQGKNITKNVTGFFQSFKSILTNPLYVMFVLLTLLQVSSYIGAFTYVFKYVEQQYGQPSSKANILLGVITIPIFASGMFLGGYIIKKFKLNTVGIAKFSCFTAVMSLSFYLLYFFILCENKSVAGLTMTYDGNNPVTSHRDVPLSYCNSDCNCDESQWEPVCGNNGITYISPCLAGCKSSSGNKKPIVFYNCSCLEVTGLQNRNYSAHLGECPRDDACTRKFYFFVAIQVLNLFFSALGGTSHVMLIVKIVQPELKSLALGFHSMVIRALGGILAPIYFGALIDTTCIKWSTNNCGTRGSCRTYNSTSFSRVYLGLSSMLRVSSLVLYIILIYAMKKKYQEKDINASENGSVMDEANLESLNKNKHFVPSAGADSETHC
# T1 sequence (P10635 whole entry): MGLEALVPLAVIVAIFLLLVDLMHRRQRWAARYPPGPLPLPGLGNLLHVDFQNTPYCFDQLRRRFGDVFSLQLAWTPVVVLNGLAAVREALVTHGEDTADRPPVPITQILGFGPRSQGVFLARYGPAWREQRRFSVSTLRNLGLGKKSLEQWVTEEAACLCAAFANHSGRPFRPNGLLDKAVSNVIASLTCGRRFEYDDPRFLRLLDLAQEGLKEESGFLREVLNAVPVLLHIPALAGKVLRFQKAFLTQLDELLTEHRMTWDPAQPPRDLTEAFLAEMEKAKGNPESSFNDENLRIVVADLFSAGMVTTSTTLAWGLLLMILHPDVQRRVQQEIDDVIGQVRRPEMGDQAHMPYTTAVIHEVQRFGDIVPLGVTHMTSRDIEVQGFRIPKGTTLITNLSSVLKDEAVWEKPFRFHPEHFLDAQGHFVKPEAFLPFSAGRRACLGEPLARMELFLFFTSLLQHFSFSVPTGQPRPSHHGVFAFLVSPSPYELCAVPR
smiles,measurement,setting,value
CC1(C)CCC(CN2CCN(c3ccc(C(=O)NS(=O)(=O)c4ccc(NCC5CCOCC5)c([N+](=O)[O-])c4)c(Oc4cnc5[nH]ccc5c4)c3)CC2)=C(c2ccc(Cl)cc2)C1 [Venetoclax],mRNA expression of CYP1A1,CYP1A1,induced
same,mRNA expression of ABCG2,ABCG2,unchanged
same,mRNA expression of SLCO1B1,SLCO1B1,suppressed
same,IC50 CYP2D6 inhibition,CYP2D6,no inhibition
same,IC50,[1],17.2 ± 1.8 µM
same,IC50,CYP2C19,14.2 ± 1 µM
same,IC50,OATP1B1,47.8 ± 10.1 µM
